# In ChEMBL document CHEMBL3576821, “A potent antimicrobial compound isolated from Clathria cervicornis” (2015):
# Tests used:
# Assay type in all cases: functional
# Acinetobacter baumannii = experiment: Antimicrobial activity against Acinetobacter baumannii ATCC 19606 assessed as bacterial growth inhibition after 24 hrs by standard broth microdilution method; details: ATCC 19606, 24 h
# Klebsiella pneumoniae = experiment: Antimicrobial activity against Klebsiella pneumoniae ATCC 13883 assessed as bacterial growth inhibition after 24 hrs by standard broth microdilution method; details: ATCC 13883, 24 h
# Pseudomonas aeruginosa = experiment: Antimicrobial activity against Pseudomonas aeruginosa ATCC 10145 assessed as bacterial growth inhibition after 24 hrs by standard broth microdilution method; details: ATCC 10145, 24 h
Compound,MIC (Acinetobacter baumannii) [µg/mL],MIC (Klebsiella pneumoniae) [µg/mL],MIC (Pseudomonas aeruginosa) [µg/mL]
O=C(O)c1cn(C2CC2)c2cc(N3CCNCC3)c(F)cc2c1=O [CIPROFLOXACIN],2,1,1
CC[C@H]1CCCC[C@@]2(C[C@@H]3CC[C@@H]4[C@H](C(=O)OCCCCCCCCCCCCCCCC(=O)N(CCCN)C[C@@H](O)CCN)[C@]5(CCC[C@@H](C)O5)N=C(N2)N34)O1 [CRAMBESCIDIN 800],2,1,1
C[C@H]1COc2c(N3CCN(C)CC3)c(F)cc3c(=O)c(C(=O)O)cn1c23.C[C@H]1COc2c(N3CCN(C)CC3)c(F)cc3c(=O)c(C(=O)O)cn1c23.O [LEVOFLOXACIN],1,,
CN(C)[C@@H]1C(O)=C(C(N)=O)C(=O)[C@@]2(O)C(O)=C3C(=O)c4c(O)cccc4[C@@](C)(O)[C@H]3C[C@@H]12 [TETRACYCLINE],2,1,1
